Laboratory results from US9783556B2, “Kinase inhibitors” (RESPIVERT LIMITED, priority 2012, dated 2017).

Tests used:
[1] = target: GSK 3α (Homo sapiens (Human), UniProt P49840); assay: GSK 3α enzyme inhibition (Z-LYTE FRET); format: biochemical; conditions: read-out: IC50 Values for Enzyme Inhibition GSK3α
Description: (§1) The enzyme inhibitory activities of compounds disclosed herein are determined by FRET using synthetic peptides labelled with both donor and acceptor fluorophores (Z-LYTE, Invitrogen Ltd., Paisley, UK).
The following two assay variants can be used for determination of GSK 3α inhibition.
The inhibitory activities of compounds of the invention against the GSK 3α enzyme isoform (Invitrogen), are evaluated by determining the level of activation/phosphorylation of the target peptide. The GSK3-α protein (500 ng/mL, 2.5 μL) is mixed with the test compound (2.5 μL at either 4 μg/mL, 0.4 μg/mL, 0.04 μg/mL, or 0.004 μg/mL) for 2 hr at RT. The FRET peptide (8 μM, 2.5 μL), which is a phosphorylation target for GSK3α, and ATP (40 μM, 2.5 μL) are then added to the enzyme/compound mixture and the resulting mixture incubated for 1 hr. Development reagent (protease, 5 μL) is added for 1 hr prior to detection in a fluorescence microplate reader (Varioskan® Flash, ThermoFisher Scientific).
(§2) In all cases, the site-specific protease cleaves non-phosphorylated peptide only and eliminates the FRET signal. Phosphorylation levels of each reaction are calculated using the ratio of coumarin emission (donor) over fluorescein emission (acceptor), for which high ratios indicate high phosphorylation and low ratios indicate low phosphorylation levels. The percentage inhibition of each reaction is calculated relative to non-inhibited control and the 50% inhibitory concentration (IC50 value) is then calculated from the concentration-response curve.
This method follows the same steps as Method 1 above, but utilises a shorter period of mixing of the test compound (105 minutes instead of 2 hours) with the GSK3-α protein.

[2] = system: PBMCs; assay: LPS-induced TNFα/IL-8 release in PBMC cells; format: cell-based; conditions: Homo sapiens, LPS-stimulated PBMCs, IL-8, read-out: IC50 Values for Inhibition of Cytokine Release PBMCs IL-8
Description: Peripheral blood mononuclear cells (PBMCs) from healthy subjects are separated from whole blood using a density gradient (Lymphoprep, Axis-Shield Healthcare). The PBMCs are seeded in 96 well plates and treated with compounds at the desired concentration for 2 hours before addition of 1 ng/mL LPS (Escherichia Coli 0111:B4 from Sigma Aldrich) for 24 hours under normal tissue culture conditions (37° C., 5% CO2). The supernatant is harvested for determination of IL-8 and TNFα concentrations by sandwich ELISA (Duo-set, R&D systems) and read on the fluorescence microplate reader (Varioskan® Flash, ThermoFisher Scientific). The concentration at 50% inhibition (IC50) of IL-8 and TNFα production is calculated from the dose response curve.

[3] = target: c-Src (Homo sapiens (Human), UniProt P12931); assay: c-Src enzyme inhibition (Z-LYTE FRET); format: biochemical
Chain of c-Src (P12931 whole entry, looked up): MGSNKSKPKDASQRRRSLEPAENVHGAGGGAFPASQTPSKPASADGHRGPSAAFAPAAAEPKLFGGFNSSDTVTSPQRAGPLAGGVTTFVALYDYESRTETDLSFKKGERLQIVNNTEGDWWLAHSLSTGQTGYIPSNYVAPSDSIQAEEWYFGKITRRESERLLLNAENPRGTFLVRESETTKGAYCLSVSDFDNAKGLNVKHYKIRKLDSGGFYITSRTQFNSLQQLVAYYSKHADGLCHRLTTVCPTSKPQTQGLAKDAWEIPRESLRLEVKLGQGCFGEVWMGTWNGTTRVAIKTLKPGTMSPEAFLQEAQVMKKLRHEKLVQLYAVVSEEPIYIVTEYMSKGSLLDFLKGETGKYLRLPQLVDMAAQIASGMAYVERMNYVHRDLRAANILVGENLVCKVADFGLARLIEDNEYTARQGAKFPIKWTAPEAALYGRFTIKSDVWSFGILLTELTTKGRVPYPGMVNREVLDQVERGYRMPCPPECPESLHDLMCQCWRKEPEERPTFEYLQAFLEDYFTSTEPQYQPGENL
Description: as §1
(§3) The inhibitory activities of compounds of the invention against c-Src and Syk enzymes (Invitrogen), are evaluated in a similar fashion to that described hereinabove. The relevant enzyme (3000 ng/mL or 2000 ng/mL respectively, 2.5 μL) is incubated with the test compound (either 4 μg/mL, 0.4 μg/mL, 0.04 μg/mL, or 0.004 μg/mL, 2.5 μL each) for 2 hr at RT. The FRET peptides (8 μM, 2.5 μL), and appropriate ATP solutions (2.5 μL, 800 μM for c-Src, and 60 μM ATP for Syk) are then added to the enzymes/compound mixtures and incubated for 1 hr. Development reagent (protease, 5 μL) is added for 1 hr prior to detection in a fluorescence microplate reader (Varioskan® Flash, ThermoFisher Scientific).
as §2

[4] = target: Syk (Homo sapiens (Human), UniProt P43405); assay: Syk enzyme inhibition (Z-LYTE FRET); format: biochemical
Description: as §1, §3, §2

[5] = target: p38 MAPKα isoform (MAPK14) (Homo sapiens (Human), UniProt Q16539); assay: p38 MAPKα enzyme inhibition (Z-LYTE FRET); format: biochemical
Chain of p38 MAPKα isoform (MAPK14) (Q16539 whole entry, canonical isoform): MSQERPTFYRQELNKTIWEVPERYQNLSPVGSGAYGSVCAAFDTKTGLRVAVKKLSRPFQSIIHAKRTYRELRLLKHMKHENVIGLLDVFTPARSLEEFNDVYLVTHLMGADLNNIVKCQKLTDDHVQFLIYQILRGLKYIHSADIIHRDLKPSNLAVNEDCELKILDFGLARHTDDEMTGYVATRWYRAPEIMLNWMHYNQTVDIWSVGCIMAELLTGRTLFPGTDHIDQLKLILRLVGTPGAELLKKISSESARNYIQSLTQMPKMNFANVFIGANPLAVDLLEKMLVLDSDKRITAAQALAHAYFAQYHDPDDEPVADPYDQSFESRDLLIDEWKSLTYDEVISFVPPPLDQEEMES
Description: as §1
The following two assay variants can be used for determination of p38 MAPKα inhibition.
The inhibitory activities of test compounds against the p38 MAPKα isoform (MAPK14: Invitrogen), are evaluated indirectly by determining the level of activation/phosphorylation of the down-stream molecule, MAPKAP-K2. The p38 MAPKα protein (80 ng/mL, 2.5 μL) is mixed with the test compound (2.5 μL of either 4 μg/mL, 0.4 μg/mL, 0.04 μg/mL or 0.004 μg/mL) for 2 hr at RT. […] The mixture is incubated for 1 hr at RT. Development reagent (protease, 5 μL) is added for 1 hr prior to detection in a fluorescence microplate reader (Varioskan® Flash, ThermoFisher Scientific).
This method follows the same steps as Method 1 above, but utilises a higher concentration of the p38 MAPKα protein (2.5 μL of 200 ng/mL protein instead of 2.5 μL of 80 ng/mL protein) for mixing with the test compound.
as §2

[6] = system: PBMCs; assay: IL-2 and IFN gamma release in CD3/CD28 stimulated PBMC cells; format: cell-based; conditions: Homo sapiens, IL-2, read-out: IC50 Values for Inhibition of Cytokine Release PBMCs IL-2
Description: PBMCs from healthy subjects are separated from whole blood using a density gradient (Lymphoprep, Axis-Shield Healthcare). Cells are added to a 96 well plate pre-coated with a mixture of CD3/CD38 monoclonal antibodies (0.3 μg/mL eBioscience and 3 μg/mL BD Pharmingen respectively). Compound at the desired concentration is then added to the wells and the plate left for 3 days under normal tissue culture conditions. Supernatants are harvested and IL-2 and IFN gamma release determined by Sandwich ELISA (Duo-set, R&D System). The IC50 is determined from the dose response curve.

[7] = system: HT29 cells; assay: IL-1β-induced IL-8 release in HT29 cells; format: cell-based; conditions: Homo sapiens, HT-29, IL-1β-stimulated HT29 cells, read-out: IC50 Values for Inhibition of Cytokine Release HT29 cells IL-8
Description: HT29 cells, a human colon adenocarcinoma cell line, are plated in a 96 well plate (24 hrs) and pre-treated with compounds at the desired concentration for 2 hours before addition of 5 ng/mL of IL-1β (Abcam) for 24 hours. Supernatants are harvested for IL-8 quantification by Sandwich ELISA (Duo-set, R&D System). The IC50 is determined from the dose response curve.

Chain of GSK 3α (P49840 whole entry): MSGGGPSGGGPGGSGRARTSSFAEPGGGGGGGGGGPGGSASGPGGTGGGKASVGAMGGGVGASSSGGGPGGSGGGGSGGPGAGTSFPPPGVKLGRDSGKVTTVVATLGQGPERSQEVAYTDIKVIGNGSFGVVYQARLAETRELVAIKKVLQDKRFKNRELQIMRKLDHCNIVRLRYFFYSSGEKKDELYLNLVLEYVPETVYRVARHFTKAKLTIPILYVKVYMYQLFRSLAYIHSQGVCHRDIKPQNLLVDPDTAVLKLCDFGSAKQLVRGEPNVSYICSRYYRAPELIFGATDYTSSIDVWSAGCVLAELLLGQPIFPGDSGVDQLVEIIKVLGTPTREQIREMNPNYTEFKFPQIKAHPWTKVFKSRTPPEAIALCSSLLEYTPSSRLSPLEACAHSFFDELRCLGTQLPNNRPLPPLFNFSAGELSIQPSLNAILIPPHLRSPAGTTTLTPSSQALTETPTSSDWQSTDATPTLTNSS

Row | Compound | IC50 [1] [nM] | IC50 [2] [nM] | IC50 [3] [nM] | IC50 [4] [nM] | IC50 [5] [nM] | IC50 [6] [nM] | IC50 [7] [nM]
1 | Cc1ccc(-n2nc([Si](C)(C)C)cc2NC(=O)Nc2ccc(Oc3ccnc(Nc4cc(C)c5[nH]ncc5c4)n3)c(Cl)c2Cl)cc1 [Example 17, 1-(2,3-Dichloro-4-((2-((7-methyl-1H-indazol-5-yl)amino)pyrimidin-4-yl)oxy)phenyl)-3-(1-(p-tolyl)-3-(trimethylsilyl)-1H-pyrazol-5-yl)urea] | > 10000 | 8 |  |  |  |  | 
2 | Cc1ccc(-n2nc([Si](C)(C)C)cc2NC(=O)Nc2ccc(Oc3ccnc(Nc4ccccn4)n3)c3ccccc23)cc1 [Example 14, 1-(4-((2-(pyridin-2-ylamino)pyrimidin-4-yl)oxy)naphthalen-1-yl)-3-(1-(p-tolyl)-3-(trimethylsilyl)-1H-pyrazol-5-yl)urea] | > 10000 | 36.6 | 360 | > 1000 |  |  | 
3 | Cc1ccc(-n2nc([Si](C)(C)C)cc2NC(=O)Nc2ccc(Oc3ccnc(Nc4ccc5onc(N)c5c4)n3)c3ccccc23)cc1 [Example 8, 1-(4-((2-((3-Aminobenzo[d]isoxazol-5-yl)amino)pyrimidin-4-yl)oxy)naphthalen-1-yl)-3-(1-(p-tolyl)-3-(trimethylsilyl)-1H-pyrazol-5-yl)urea] | 2150 | 3.9 | 37 | 269 | > 1000 |  | 
4 | CC[Si](CC)(CC)c1cc(NC(=O)Nc2ccc(Oc3ccnc(Nc4ccccc4)n3)c3ccccc23)n(-c2ccc(C)cc2)n1 [Example 4, 1-(4-((2-(phenylamino)pyrimidin-4-yl)oxy)naphthalen-1-yl)-3-(1-(p-tolyl)-3-(triethylsilyl)-1H-pyrazol-5-yl)urea] | > 10000 | 95.9 |  |  |  |  | 
5 | COc1cc(Nc2nccc(Oc3ccc(NC(=O)Nc4cc([Si](C)(C)C)nn4-c4ccc(C)cc4)c4ccccc34)n2)cc(C(=O)NC[C@H](O)[C@@H](O)[C@H](O)[C@H](O)CO)c1 [Example 19, 3-Methoxy-N-((2S,3R,4R,5R)-2,3,4,5,6-pentahydroxyhexyl)-5-((4-((4-(3-(1-(p-tolyl)-3-(trimethylsilyl)-1H-pyrazol-5-yl)ureido)naphthalen-1-yl)oxy)pyrimidin-2-yl)amino)-benzamide] | 6730 | 76 |  |  |  |  | 
6 | Cc1ccc(-n2nc([Si](C)(C)C(C)(C)C)cc2NC(=O)Nc2ccc(Oc3ccnc(Nc4ccccc4)n3)c3ccccc23)cc1 [Example 5, 1-(3-(tert-Butyldimethylsilyl)-1-(p-tolyl)-1H-pyrazol-5-yl)-3-(4-((2-(phenylamino)pyrimidin-4-yl)oxy)naphthalen-1-yl)urea] | 5010 | 113 |  |  |  |  | 
7 | Cc1cc(Nc2nccc(Oc3ccc(NC(=O)Nc4cc([Si](C)(C)C)nn4-c4ccc(OCCN5CCOCC5)cc4)c4ccccc34)n2)cc2cn[nH]c12 [Example 15, 1-(4-((2-((7-Methyl-1H-indazol-5-yl)amino)pyrimidin-4-yl)oxy)naphthalen-1-yl)-3-(1-(4-(2-morpholinoethoxy)phenyl)-3-(trimethylsilyl)-1H-pyrazol-5-yl)urea] | 3490 | 2.2 | 15 | 24 | 253 | 30.7 | 6.5
8 | Cc1ccc(-n2nc([Si](C)(C)C)cc2NC(=O)Nc2ccc(Oc3ccnc(Nc4ccc5c(c4)CNC5=O)n3)c3ccccc23)cc1 [Example 20, 1-(4-((2-((1-Oxoisoindolin-5-yl)amino)pyrimidin-4-yl)oxy)naphthalen-1-yl)-3-(1-(p-tolyl)-3-(trimethylsilyl)-1H-pyrazol-5-yl)urea] | 345 | 1.8 |  |  |  |  | 
9 | CC[Si](C)(C)c1cc(NC(=O)Nc2ccc(Oc3ccnc(Nc4ccccc4)n3)c3ccccc23)n(-c2ccc(C)cc2)n1 [Example 16, 1-(3-(Ethyldimethylsilyl)-1-(p-tolyl)-1H-pyrazol-5-yl)-3-(4-((2-(phenylamino)pyrimidin-4-yl)oxy)naphthalen-1-yl)urea] | > 10000 | 14.8 | 116 | > 1000 |  |  | 
10 | Cc1ccc(-n2nc([Si](C)(C)C)cc2NC(=O)Nc2ccc(Oc3ccnc(Nc4cccc(OCCN(C)C)c4)n3)c3ccccc23)cc1 [Example 11, 1-(4-((2-((3-(2-(Dimethylamino)ethoxy)phenyl)amino)pyrimidin-4-yl)oxy)naphthalen-1-yl)-3-(1-(p-tolyl)-3-(trimethylsilyl)-1H-pyrazol-5-yl)urea] | 690 | 1.4 |  |  |  |  | 
11 | COc1cc(Nc2nccc(Oc3ccc(NC(=O)Nc4cc([Si](C)(C)C)nn4-c4ccc(C)cc4)c4ccccc34)n2)cc(C(=O)NCCN2CCOCC2)c1 [Example 12, 3-Methoxy-N-(2-morpholinoethyl)-5-((4-((4-(3-(1-(p-tolyl)-3-(trimethylsilyl)-1H-pyrazol-5-yl)ureido)naphthalen-1-yl)oxy)pyrimidin-2-yl)amino)benzamide] | 1920 | 0.9 | 10 | 17 | 142 | 28.2 | 
12 | COc1cc(Nc2nccc(Oc3ccc(NC(=O)Nc4cc([Si](C)(C)C)nn4-c4ccc(C)cc4)c(Cl)c3Cl)n2)cc(OCCN2CCOCC2)c1 [Example 18, 1-(2,3-Dichloro-4-((2-((3-methoxy-5-(2-morpholinoethoxy)phenyl)amino)pyrimidin-4-yl)oxy)phenyl)-3-(1-(p-tolyl)-3-(trimethylsilyl)-1H-pyrazol-5-yl)urea] | > 10000 | 2.7 | 41 | 59 | > 1000 |  | 
